In this data set the test system is HepG2 hepatocytes. Briefly: Inhibition of cholesterol synthesis in HepG2 hepatocytes (secreted cholesterol and cholesteryl ester, AmplexRed). Format: cell-based. As for the experimental part: HepG2 hepatocytes were used as a model to study the inhibition of cholesterol synthesis according to the procedures described in Dashti, N., et al., J. Lipid Res. 28:423-436 (1987) and Mohammadi, A., et al., Arterioscler. Thromb. Vasc. Biol., […]:783-793 (1998). […] Amounts of secreted cholesterol and cholesteryl ester are measured from acetate fed hepatocyte culture media using a fluorescent indicator AmplexRed.
The same cholesterol inhibition model used in Example I was used to determine the cholesterol synthesis inhibition of theaflavins, including theaflavin and gallate esters of theaflavin.

In the case of `O=c1c(O)cc([C@H]2Oc3cc(O)cc(O)c3C[C@H]2O)cc2c([C@H]3Oc4cc(O)cc(O)c4C[C@H]3O)cc(O)c(O)c12` [theaflavin, Theaflavin], the inhibition at 50 µg/mL (Homo sapiens, 0.05 mg/ml theaflavin, acetate fed HepG2 culture media, FIG. 1, read-out: inhibitory effect (cholesterol synthesis/release)) is about 30%. For the same compound, the “dose specific response of hepatocytes compared to Lipotor” value (same weight basis (tablet weight, 6.7% actives), HepG2, FIG. 1) is “comparable or slightly better than Lipotor®”.

In the case of `O=C(O[C@@H]1Cc2c(O)cc(O)cc2O[C@@H]1c1cc(=O)c(O)c2c(O)c(O)cc([C@H]3Oc4cc(O)cc(O)c4C[C@H]3O)c2c1)c1cc(O)c(O)c(O)c1` [theaflavin-3-gallate], the “cholesterol inhibition activity (contribution among materials tested)” value (HepG2, dose response FIG. 2, materials of Table I) is listed as “provided much of the cholesterol inhibition activity”.

The values are drawn from US20040097432A1, “Method of reducing cholesterol” (ACCESS BUSINESS GROUP INTERNATIONAL LLC., priority 2002, published 2004).
